Our source for the Emax and EC50 values is US20250101038A1, “COMPOUNDS” (priority 2021, published 2025).

Usually Emax stands for the size of the effect at its maximum, as opposed to the concentration needed. As a reminder, the EC50 is the concentration that produces a half-maximal response.

The structures appear in SMILES notation.

The target in experiment [1] is T1, 5-HT2B receptor (Homo sapiens, UniProt P41595).
T1 construct: host or cells: CHO-K1
The experiment can be described thus: cell-based. Particulars: agonist activity, Ca2+ flux, CHO-K1 cells; for EC50: read-out: 5-HT2B EC50.

In experiment [2] the target is T2, 5-HT2A receptor (Homo sapiens, UniProt P28223).
T2 construct: host or cells: HEK293
T2 sequence (P28223 whole entry): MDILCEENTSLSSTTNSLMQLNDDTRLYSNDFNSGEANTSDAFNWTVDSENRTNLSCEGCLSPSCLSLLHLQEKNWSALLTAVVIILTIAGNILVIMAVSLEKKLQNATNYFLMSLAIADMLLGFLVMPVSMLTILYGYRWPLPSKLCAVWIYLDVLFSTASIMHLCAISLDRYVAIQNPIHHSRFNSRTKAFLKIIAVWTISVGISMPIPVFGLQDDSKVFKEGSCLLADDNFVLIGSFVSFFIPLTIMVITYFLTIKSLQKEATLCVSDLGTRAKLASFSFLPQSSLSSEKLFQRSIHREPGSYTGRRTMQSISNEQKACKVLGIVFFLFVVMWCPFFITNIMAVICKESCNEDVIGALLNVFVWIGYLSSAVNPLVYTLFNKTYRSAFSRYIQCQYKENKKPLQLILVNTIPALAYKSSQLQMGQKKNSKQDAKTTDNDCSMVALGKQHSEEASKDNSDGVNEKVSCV
Kind of experiment: FLIPR Ca2+ flux functional assay, 5-HT2A. The experiment is classed as cell-based. The conditions noted are these: agonist activity, Ca2+ flux, HEK293 cells; for EC50: read-out: 5-HT2A EC50. On the procedure: Activity at 5-HT2A, 5-HT2B and 5-HT2C receptors was determined using a FLIPR Ca^2+ flux assay at WuXi AppTec Co. Ltd. (Hong Kong) Discovery Biology Unit according to their standard protocols. Briefly, stably transfected cells expressing the receptor of interest (HEK293 for 5-HT2A and 5-HT2C; CHO-K1 for 5-HT2B) were grown and plated in a 384 well plate and incubated at 37° C. and 5% CO2 overnight. A 250 mM stock solution of probenecid in FLIPR calcium assay buffer (10 mL) was freshly prepared and combined with a fluorescent dye (Fluo-4 Direct) to give a final assay concentration of 2.5 mM. Reference compounds were 4-fold serially diluted and the screening compounds were 3-fold serially diluted in 100% DMSO for 10 points using Agilent Bravo, and 750 nL was added to a 384 well compound plate using Echo along with 30 μL assay buffer. The fluorescent dye was then added to the assay plate along with assay buffer to a final volume of […]. The cell plate was incubated for 50 min at 37° C. and 5% CO2 and placed into the FLIPR Tetra along with the compound plate. 10 μL of references and compounds were then transferred from the compound plate into the cell plate and the fluorescent signal was read.

In experiment [3] the target is T3, 5-HT2C receptor (Homo sapiens, UniProt P28335).
T3 construct: host or cells: HEK293
T3 sequence (P28335 33-458): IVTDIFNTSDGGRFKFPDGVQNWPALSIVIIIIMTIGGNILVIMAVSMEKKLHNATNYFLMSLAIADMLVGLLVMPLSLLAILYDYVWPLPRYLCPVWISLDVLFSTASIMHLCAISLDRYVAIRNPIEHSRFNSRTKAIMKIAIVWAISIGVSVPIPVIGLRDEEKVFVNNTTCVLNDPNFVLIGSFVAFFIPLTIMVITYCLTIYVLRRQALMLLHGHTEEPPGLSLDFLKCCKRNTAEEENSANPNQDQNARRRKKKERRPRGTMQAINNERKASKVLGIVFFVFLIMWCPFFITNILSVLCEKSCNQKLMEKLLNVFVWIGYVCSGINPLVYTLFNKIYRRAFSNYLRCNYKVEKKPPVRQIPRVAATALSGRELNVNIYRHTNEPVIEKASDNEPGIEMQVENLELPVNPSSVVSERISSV
The experiment can be described thus: cell-based. Particulars: agonist activity, Ca2+ flux, HEK293 cells; for EC50: read-out: 5-HT2C EC50.

T1 sequence (P41595 whole entry): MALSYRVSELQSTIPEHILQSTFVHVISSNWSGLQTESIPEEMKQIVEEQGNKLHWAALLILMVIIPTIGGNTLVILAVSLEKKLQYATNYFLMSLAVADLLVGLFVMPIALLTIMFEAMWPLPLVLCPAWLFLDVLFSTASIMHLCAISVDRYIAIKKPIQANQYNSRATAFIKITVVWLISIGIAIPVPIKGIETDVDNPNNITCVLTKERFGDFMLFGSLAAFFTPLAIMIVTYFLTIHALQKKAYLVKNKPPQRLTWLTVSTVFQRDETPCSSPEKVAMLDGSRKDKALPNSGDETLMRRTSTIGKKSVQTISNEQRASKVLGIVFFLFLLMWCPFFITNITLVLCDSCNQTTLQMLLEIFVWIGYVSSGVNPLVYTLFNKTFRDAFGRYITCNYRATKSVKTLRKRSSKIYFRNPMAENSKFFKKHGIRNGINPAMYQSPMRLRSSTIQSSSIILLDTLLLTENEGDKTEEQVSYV

As for `CCCN(CC)CCc1c[nH]c2c(C)cc(OC)cc12` [Example P-55, N-ethyl-N-(2-(5-methoxy-7-methyl-1H-indol-3-yl)ethyl)propan-1-amine], the Emax came out at 13.2% in experiment [1], 81.8% in experiment [2] and 57.9% in experiment [3]. The EC50 in experiment [1] was more than 10000 nM; in experiment [2], 134 nM; in experiment [3] it was 1810 nM.
Take `CCCN(CCC)CCc1c[nH]c2c(C)cc(OC)cc12` [Example P-57, N, N-dipropyl-2-(5-methoxy-7-methyl-1H-indol-3-yl)ethan-1-amine]: the Emax in experiment [1] was 9.45%; in experiment [2] it was 79.2%; in experiment [3], 30.7%. The values for the EC50 in experiment [1], in experiment [2] and in experiment [3] were more than 10000 nM, 140 nM and 2860 nM, respectively.
As to `COc1cc(C)c2[nH]cc(CCN(C(C)C)C(C)C)c2c1` [Example P-58, N-isopropyl-N-(2-(5-methoxy-7-methyl-1H-indol-3-yl)ethyl)propan-2-amine], the Emax in experiment [1] amounted to 42.8%; in experiment [2], 84%; in experiment [3] it was 85.8%. Moreover, the concentration giving a half-maximal response (EC50) in experiment [1] was 604 nM; in experiment [2], 475 nM; in experiment [3] it was 1700 nM.
Take `CCN(C)CCc1c[nH]c2ccc(C)c(OC)c12` [Example P-59, N-ethyl-2-(4-methoxy-5-methyl-1H-indol-3-yl)-N-methylethan-1-amine]: the Emax in experiment [1] was 68.1%; in experiment [2] it was 78%; in experiment [3], 90.5%. Besides, the EC50 in experiment [1] stood at 4710 nM; in experiment [2], 34.6 nM; in experiment [3] it was 43.8 nM.
As for `COc1c(C)ccc2[nH]cc(CCN(C)C(C)C)c12` [Example P-60, N-(2-(4-methoxy-5-methyl-1H-indol-3-yl)ethyl)-N-methylpropan-2-amine], the Emax is 71% in experiment [1], 66.3% in experiment [2] and 72.2% in experiment [3]. In addition, the EC50 came to 768 nM in experiment [1], 77.6 nM in experiment [2] and 198 nM in experiment [3].
For `CCN(CC)CCc1c[nH]c2ccc(C)c(OC)c12` [Example P-61, N, N-diethyl-2-(4-methoxy-5-methyl-1H-indol-3-yl)ethan-1-amine], the Emax stood at 46.3% in experiment [1], 67.7% in experiment [2] and 75.8% in experiment [3]. Besides, the concentration for a half-maximal effect (EC50) is more than 10000 nM in experiment [1], 321 nM in experiment [2] and 444 nM in experiment [3].
`CCN(CCc1c[nH]c2ccc(C)c(OC)c12)C(C)C` [Example P-62, N-ethyl-N-(2-(4-methoxy-5-methyl-1H-indol-3-yl)ethyl)propan-2-amine]: the Emax worked out at 61.5% in experiment [1], 41.9% in experiment [2] and 65.9% in experiment [3]. Also, the half-maximal effective concentration (EC50) was found to be 5320 nM in experiment [1], 319 nM in experiment [2] and 1290 nM in experiment [3].
As to `COc1c(C)ccc2[nH]cc(CCN(C(C)C)C(C)C)c12` [Example P-63, N-isopropyl-N-(2-(4-methoxy-5-methyl-1H-indol-3-yl)ethyl)propan-2-amine], the Emax in experiment [1] is 70.2%; in experiment [2], 72.7%; in experiment [3], 49.4%. Moreover, the EC50 in experiment [1] is 2250 nM; in experiment [2] it was 1570 nM; in experiment [3], 9660 nM.
In the case of `CCN(C)CCc1c[nH]c2ccc(C)c(O)c12` [Example P-64, 3-(2-(ethyl(methyl)amino)ethyl)-5-methyl-1H-indol-4-ol], the Emax stood at 2.42% in experiment [1], 79% in experiment [2] and 61% in experiment [3]. The EC50 in experiment [1] was not below 10000 nM; in experiment [2], 62.2 nM; in experiment [3], 141 nM.
For `CCCN(C)CCc1c[nH]c2ccc(C)c(O)c12` [Example P-65, 5-methyl-3-(2-(methyl(propyl)amino)ethyl)-1H-indol-4-ol], the Emax in experiment [1] came out at 6.22%; in experiment [2], 78.8%; in experiment [3] it was 66.3%. Moreover, the half-maximal effective concentration (EC50) in experiment [1] was not below 10000 nM; in experiment [2], 56.1 nM; in experiment [3], 175 nM.
Turning to `Cc1ccc2[nH]cc(CCN(C)C(C)C)c2c1O` [Example P-66, 3-(2-(isopropyl(methyl)amino)ethyl)-5-methyl-1H-indol-4-ol], the Emax in experiment [1] is 2.07%; in experiment [2], 94.7%; in experiment [3], 50.3%. For the same molecule, the figures for the EC50 in experiment [1], in experiment [2] and in experiment [3] were not below 10000 nM, 91.9 nM and 391 nM, respectively.
Regarding `CCN(CC)CCc1c[nH]c2ccc(C)c(O)c12` [Example P-67, 3-(2-(diethylamino)ethyl)-5-methyl-1H-indol-4-ol], the Emax in experiment [1] worked out at 11.7%; in experiment [2] it was 78.3%; in experiment [3], 78.2%. Besides, the EC50 in experiment [1] is not below 10000 nM; in experiment [2] it was 163 nM; in experiment [3], 922 nM.
For `CCCN(CCC)CCc1c[nH]c2ccc(C)c(O)c12` [Example P-68, 3-(2-(dipropylamino)ethyl)-5-methyl-1H-indol-4-ol], the Emax in experiment [1] amounted to 64.3%; in experiment [2], 102%; in experiment [3] it was 78%. For the same molecule, the EC50 in experiment [1] was not below 10000 nM; in experiment [2], 148 nM; in experiment [3], 871 nM.
As to `Cc1ccc2[nH]cc(CCN(C(C)C)C(C)C)c2c1O` [Example P-69, 3-(2-(diisopropylamino)ethyl)-5-methyl-1H-indol-4-ol], the values for the Emax in experiment [1], in experiment [2] and in experiment [3] were 66.9%, 78.8% and 70.2%, respectively. Further, the values for the EC50 in experiment [1], in experiment [2] and in experiment [3] were not below 10000 nM, 245 nM and 3210 nM, respectively.
Regarding `CCN(C)CCc1c[nH]c2c(C)ccc(OC)c12` [Example P-80, N-ethyl-2-(4-methoxy-7-methyl-1H-indol-3-yl)-N-methylethan-1-amine], the values for the Emax in experiment [1], in experiment [2] and in experiment [3] were 0.74%, 30% and 66.7%, respectively. Besides, the EC50 in experiment [1] was more than 10000 nM; in experiment [2], 113 nM; in experiment [3], 140 nM.
`COc1ccc(C)c2[nH]cc(CCN(C)C(C)C)c12` [Example P-81, N-(2-(4-methoxy-7-methyl-1H-indol-3-yl)ethyl)-N-methylpropan-2-amine]: the Emax came to 0.59% in experiment [1], 41.4% in experiment [2] and 38.8% in experiment [3]. The EC50 was more than 10000 nM in experiment [1], 126 nM in experiment [2] and 764 nM in experiment [3].
For `CCN(CC)CCc1c[nH]c2c(C)ccc(OC)c12` [Example P-82, N,N-diethyl-2-(4-methoxy-7-methyl-1H-indol-3-yl)ethan-1-amine], the Emax in experiment [1] stood at 0.89%; in experiment [2], 42.4%; in experiment [3], 76.7%. Moreover, the values for the EC50 in experiment [1], in experiment [2] and in experiment [3] were more than 10000 nM, 283 nM and 417 nM, respectively.
Consider `COc1ccc(C)c2[nH]cc(CCN(C(C)C)C(C)C)c12` [Example P-83, N-isopropyl-N-(2-(4-methoxy-7-methyl-1H-indol-3-yl)ethyl)propan-2-amine], for which the Emax in experiment [1] stood at 30%; in experiment [2], 79.2%; in experiment [3] it was 66.7%. The half-maximal effective concentration (EC50) in experiment [1] is more than 10000 nM; in experiment [2] it was 619 nM; in experiment [3], 1620 nM.
On to `CCN(C)CCc1c[nH]c2c(C)ccc(O)c12` [Example P-85, 3-(2-(ethyl(methyl)amino)ethyl)-7-methyl-1H-indol-4-ol], for which the Emax in experiment [1] was 0.13%; in experiment [2], 52%; in experiment [3] it was 26.9%.
As to `CCCN(C)CCc1c[nH]c2c(C)ccc(O)c12` [Example P-86, 7-methyl-3-(2-(methyl(propyl)amino)ethyl)-1H-indol-4-ol], the Emax in experiment [1] is -0.14%; in experiment [2], 66.9%; in experiment [3], 10%. Moreover, the EC50 in experiment [1] is not below 10000 nM; in experiment [2], 110 nM; in experiment [3], more than 10000 nM.
Take `Cc1ccc(O)c2c(CCN(C)C(C)C)c[nH]c12` [Example P-87, 3-(2-(isopropyl(methyl)amino)ethyl)-7-methyl-1H-indol-4-ol]: the Emax in experiment [1] was -0.38%; in experiment [2], 62.4%; in experiment [3] it was 4.33%. Also, the EC50 is not below 10000 nM in experiment [1], 113 nM in experiment [2] and more than 10000 nM in experiment [3].
